Values quoted from earlier work as cited in patent publication US20230310615A1, “OPHTHALMIC COMPOSITIONS” (Alcon Inc., priority 2022, published 2023).

Settings: dissociation constant of the dibasic compound

In the case of `OCC(CO)(CO)NCCCNC(CO)(CO)CO` [bis-TRIS-propane, 1,3-bis(tris[hydroxymethyl]methylamino)propane], the pKa1 is given as 6.8 and the pKa2 is given as 9.5.
